What was measured:
[1] = molecular target: E. coli GlmS mutant GlmS*69 (Escherichia coli, UniProt P17169); assay: GlmS inhibition and Michaelis-Menten kinetics; format: biochemical; settings: read-out: Km (fructose-6-P)
Experimental: (§1) Different glucosamine synthetase enzymes, including native B. subtillus GlmS, native E. coli GlmS and mutant E. coli GlmS, were studied in vitro. Cells of various E. coli strains were grown in the M9A medium, harvested, and frozen. Cells extracts were prepared and the glucosamine synthetases were characterized and compared.
(§2) Enzyme sensitivities to the reaction product glucosamine-6-P were examined. […] This figure highlights the dramatic difference between the wild type GlmS and these mutant GlmS strains.
(§3) The Mutants 2123-54 and the B. subtilis enzyme have higher Ki values (Table 6). Measured Ki constants for several of these mutants are 4 to 8 times the value for the native enzyme in strain 2123-12. From shake flask studies it is apparent that decreased sensitivity to glucosamine-6-P allows higher glucosamine levels to accumulate.
(§4) These values are slightly higher than those obtained with the native enzyme.

[2] = molecular target: E. coli GlmS mutant GlmS*110 (Escherichia coli, UniProt P17169); assay: GlmS inhibition and Michaelis-Menten kinetics; format: biochemical; settings: read-out: Km (fructose-6-P)
Experimental: as §1, §2, §3, §4

[3] = molecular target: E. coli glucosamine synthase GlmS*54, SEQ ID NO:6 (Ala39Thr, Arg250Cys, Gly472Ser) (Escherichia coli, UniProt P17169, A39T/G472S/R250C); assay: Effects of phosphorylated sugars on glucosamine synthase, crude extract of lactose-induced 7107-18 cells; format: biochemical; settings: 10 mM or relatively high concentration
Experimental: Glucosamine synthetase activity was examined in the presence of various phosphorylated sugars. Crude enzyme extracts was prepared from cells of 7017-18 grown in shake flasks for 24 hours with lactose induction.

E. coli 7107-18 = tested on: E. coli 7107-18
Experimental: Batches of M9A medium with 40 g l^−1 glucose and 20 g 1-1 GlcN were adjusted to five different pHs. One set of flasks was immediately inoculated with 7107-18 cells. Replicate flasks of the same media were incubated without cells for 10 hours, before inoculation. Seven times over 48 hours, flasks were sampled to measure pH, OD600, and GlcN concentration. At each sample point, the pH of the culture was readjusted back to the initial settings.
Glucosamine is vital for E. coli growth since it is a precursor for the synthesis of important cell wall components. E. coli is also capable of using Glucosamine and N-acetylglucosamine as the sole carbon source. The catabolism of the amino sugars requires a functional glucosamine deaminase encoded by the nagB gene, which was deleted in strain 7107-18. […] Experiments were carried out to investigate if glucosamine affects E. coli 7107-18 cell growth and survival in medium containing 40 g l^−1 glucose.

[4] = Degradation in hydrochloric acid at 90-100 C based on ammonia formation; format: physicochemical; settings: 5% and 10% glucosamine hydrochloride, 12% and 20% hydrochloric acid, 90 C, 1-24 hours
Experimental: Glucosamine degradation was examined at 90° C. and 100° C. using 5% and 10% glucosamine hydrochloride (w/w) with 12% and 20% hydrochloric acid by weight. Samples were incubated from 1-24 hours and assayed enzymatically for ammonia using glutamate dehydrogenase. […] Glucosamine degradation is based on ammonia formation.
N-acetylglucosamine was hydrolyzed to glucosamine at 90° C. using the hybridization oven. The reaction was carried out inside a screw capped glass tube. The 30% hydrochloric acid (30 g) was preincubated at 90° C. for 1 hour. After this 10 g solid N-acetylglucosamine was added, quickly dissolved, and a To sample taken. Samples were taken at 30-minute intervals over the next three hours. […] Samples were analyzed for ammonia enzymatically.

[5] = Glucosamine stability in cell-free M9A medium; format: physicochemical; settings: for loss of glucosamine: 60 g l-1, cell-free M9A-glucose, 30 C, 52 hours; for glucosamine degradation: cell-free M9A + 40 g l-1 glucose
Experimental: Glucosamine stability was tested in cell-free M9A medium (14 g l^−1 K2HPO4, 16 g l^−1 KH2PO4, 1 g l^−1 Na3citrate.2H2O, 5 g l^−1 (NH4)2SO4, 1 mM MgSO4, 1 mM CaCl2, pH 7.0) supplemented with 40 g l^−1 glucose. Glucosamine was prepared as a 30% glucosamine-HCl concentrated solution and was added to final concentrations of 0, 4, 13, 26 and 42 g l^−1 (50 ml total in 250-ml flask). The pH of the medium was adjusted to pH 6.9. Flasks were placed on a shaker and agitated at about 225 rpm. Glucosamine levels and pH were monitored at 30° C. for about 24 hours. […] The degradation was only about 25% when the starting glucosamine concentration was 4 g l^−1. Glucosamine degradation was accompanied by a decline of pH in the medium. In the 42 g l^−1 glucosamine sample the pH in the medium was lowered by 0.7 units (from 6.9 to 6.2) after a 24-hr period, as compared to a pH change of only about 0.15 units in medium without glucosamine.
The breakdown of glucosamine (60 g l^−1) at four starting pH levels was monitored at 30° C. in cell-free M9A-glucose (40 g l^−1) for 52 hours. At each sampling time, the solutions were readjusted to their original pH. Each condition was run in triplicate. […] The loss of glucosamine was 68% at pH 7.0 as compared to 18% at pH 5.5.
To test the involvement of the aldehyde group, degradation was monitored in M9A medium containing 30 g l^−1 glucosamine with and without 40 g l^−1 glucose. If the aldehyde group is involved, the presence of glucose would affect the rate of glucosamine degradation/polymerization.

[6] = Glucosamine stability under acid/heat hydrolysis conditions; format: physicochemical; settings: for glucosamine stability with heating: 10 g/l in M9A, 100 C
Experimental: In the first experiment N-acetylglucosamine (10 g/l in […] medium without glucose) was hydrolyzed at 100° C. with various levels of hydrochloric acid. In a parallel experiment, glucosamine was subjected to the same treatments to determine its stability under hydrolysis conditions. Conversion of N-acetylglucosamine to glucosamine was determined by monitoring the amount of glucosamine generated by the hydrolysis reaction. Glucosamine was determined by an HPLC method based on that described by Way et al. (Journal of Liquid Chromatography and Related Technologies, 23:2861, 2000). Some specific details of the HPLC method are given below: column: […] Both the amount of remaining N-acetylglucosamine and the amount of formed glucosamine were monitored. N-acetylglucosamine was measured by HPLC using a standard carbohydrate system. Some specific details are given below: column: […] Glucosamine was measured using the ion pair HPLC column as described above. […] At 100° C. conversion was complete by 2.5 hours. […] At lower temperatures, some hydrolysis was observed, but this was much slower. […] Acid hydrolysis of N-acetylglucosamine at 90° C. was performed. […] A series of 12-ml glass screw capped tubes with Teflon lined caps were employed. Each tube represented a separate time point (0, 15, 30, 45, 60, 90 minutes) and contained 2 ml of the N-acetylglucosamine/hydrochloric acid solution. Tubes were heated in a heating block equilibrated at 90° C. Tubes were removed at appropriate times and quick cooled in ice water. Appropriate dilutions were made in and samples analyzed by HPLC for glucosamine and N-acetylglucosamine. […] Kinetics of N-acetylglucosamine disappearance were essentially the same for all four solutions. Hydrolysis is very rapid at 90° C. […] No N-acetylglucosamine was detected at 60 or 90 minutes. After 1 hour at 90° C., N-acetylglucosamine was no longer detected even with 20% N-acetylglucosamine.

[7] = Stability of glucosamine in stored culture supernatant samples; format: physicochemical
Experimental: Shake flask culture samples were assayed by both the HPLC method and the colorimetric methods. The culture supernatants were obtained by centrifugation and filtration to remove particles, and stored at -20° C. until analysis. HPLC was calibrated using a single point 2500 ppm standard solution prepared in […] medium. After thawing, samples were immediately analyzed by HPLC. After remaining in the autosampler overnight, the samples were analyzed again. Agreement was very good between the two methods.

E. coli strain 7107-18 = assay: Effects of glucosamine and N-acetylglucosamine on growth and survival of E. coli 7107-18; format: cell-based, Escherichia coli
Experimental: As shown in Example 11, glucosamine is unstable at the regular pH range used for E. coli growth. […] The toxicity was attributed to at least partially to GlcN degradation products in media with a starting pH of 7.0. […] However, low pH levels are known to limit cell growth. Therefore, experiments were conducted in which 7107-18 was grown at pH 7.0, 6.0, 5.5, 5.0 and 4.7. The main objectives were to study cell growth at these lower pHs (with GlcN), and to see if the previously observed cell death caused by GlcN degradation could be reduced at lower pHs.
Cells were inoculated into M9A-glucose (40 g/L) containing 62 g/L N-acetyl glucosamine.

[8] = substrate: O=P(O)(O)OC[C@H]1OC(O)(CO)[C@@H](O)[C@@H]1O; assay: purified protein, by the assay type

Sequence of E. coli glucosamine synthase GlmS*54, SEQ ID NO:6 (Ala39Thr, Arg250Cys, Gly472Ser) (P17169 whole entry A39T/R250C/G472S): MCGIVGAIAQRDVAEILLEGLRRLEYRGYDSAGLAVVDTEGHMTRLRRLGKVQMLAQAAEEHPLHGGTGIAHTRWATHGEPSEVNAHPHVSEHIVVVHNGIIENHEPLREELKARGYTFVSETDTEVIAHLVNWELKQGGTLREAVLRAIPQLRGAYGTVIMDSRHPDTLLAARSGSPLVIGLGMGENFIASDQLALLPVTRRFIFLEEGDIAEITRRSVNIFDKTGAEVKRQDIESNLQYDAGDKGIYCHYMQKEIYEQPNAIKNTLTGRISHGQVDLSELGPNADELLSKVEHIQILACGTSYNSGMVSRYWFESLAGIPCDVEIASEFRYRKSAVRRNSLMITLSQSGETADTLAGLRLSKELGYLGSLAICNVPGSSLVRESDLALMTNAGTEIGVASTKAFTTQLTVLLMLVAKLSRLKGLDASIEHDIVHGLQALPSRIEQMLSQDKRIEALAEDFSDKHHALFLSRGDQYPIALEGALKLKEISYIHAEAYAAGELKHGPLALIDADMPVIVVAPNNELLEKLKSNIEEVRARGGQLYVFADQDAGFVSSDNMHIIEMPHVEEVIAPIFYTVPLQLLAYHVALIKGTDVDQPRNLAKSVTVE
Sequence of E. coli GlmS mutant GlmS*110 (P17169 whole entry, change not shown): as the sequence (P17169 whole entry A39T/R250C/G472S) above, with T39A, C250R, S472G counted along it
Sequence of E. coli GlmS mutant GlmS*69 (P17169 whole entry, stated change not applied): as the sequence (P17169 whole entry A39T/R250C/G472S) above, with T39A, C250R, S472G counted along it

Q: Which results are given for `O=P(O)(O)OC[C@H]1OC(O)(CO)[C@@H](O)[C@@H]1O` (stereo partly drawn) [fructose-6-P, fructose-6-phosphate]?
A: Km [1]: 350 µM; Km [2]: 410 µM

Q: With `N[C@H]1[C@@H](OP(=O)(O)O)O[C@H](CO)[C@@H](O)[C@@H]1O` [glucosamine-1-P, glucosamine-1-phosphate] as the molecule, how does the “inhibition of glucosamine synthetase (in words)” value [3] read?
A: The value was “inhibited the enzyme at 10 mM”.

Q: Which “growth of freshly inoculated cultures” value (E. coli 7107-18; 10 and 20 g of glucosamine per liter, medium with 40 g l-1 glucose) does the source give for `N[C@H]1C(O)O[C@H](CO)[C@@H](O)[C@@H]1O` (stereo partly drawn) [glucosamine] here?
A: The value was “slightly inhibited”.

Q: And the “toxicity on strain 7107-18” value (E. coli 7107-18; 20 g l-1 glucosamine pre-incubated in the medium (pH 7.0) for 3.5 hrs prior to inoculation)?
A: The value was “Toxicity was observed”.

Q: And the “cell growth after inoculation into pre-incubated medium” value (E. coli 7107-18; 20 g l-1 glucosamine, medium incubated 10 hours before inoculation, pH 7.0 to 4.7)?
A: The value was “very poor”.

Q: And the “cell growth without glucosamine pre-incubation” value (E. coli 7107-18; 20 g l-1 glucosamine, pH 7.0)?
A: Its value is “good growth”.

Q: What about the “viable counts relative to inoculation levels” value (E. coli 7107-18; 35 g l-1 glucosamine) of the same molecule?
A: Its value is 10^5 fold less than inoculation levels.

Q: And the “cell growth, inoculated immediately” value (E. coli 7107-18; 35 g l-1 glucosamine in M9A-glucose (40 g l-1))?
A: The value was “grew reasonably well”.

Q: And the “cell survival in pre-incubated medium” value (E. coli 7107-18; 35 g l-1 glucosamine, medium pre-incubated as short as 3.5 hours)?
A: The value was “died rapidly”.

Q: And the “viable count after 52 hrs” value (E. coli 7107-18; 40 g glucosamine per liter)?
A: Its value is “about one-fifth the original number”.

Q: And the “cell growth and survival” value (E. coli 7107-18; 40 g glucosamine per liter, killing after about 16 hours)?
A: Its value is “prevented cell growth and began to kill the cells”.

Q: And the “cell survival without medium pre-incubation” value (E. coli 7107-18; 50 g l-1 glucosamine)?
A: The value was “Cells died”.

Q: What about the “glucosamine degradation based on ammonia formation (in words)” value [4] of the same molecule?
A: Its value is “significantly higher with higher acid concentration”.

Q: What about the “stability of glucosamine (in words)” value ([5]; 0-42 g l-1 in cell-free M9A-glucose, pH 6.9, 30 C) of the same molecule?
A: The value was “unstable”.

Q: And the “glucosamine breakdown with versus without 40 g l-1 glucose” value ([5]; 30 g l-1 glucosamine in M9A medium)?
A: Its value is “No significant difference”.

Q: What about the “decline of pH in the medium” value ([5]; 42 g l-1 glucosamine, 24-hr period (6.9 to 6.2)) of the same molecule?
A: The value was 0.7 units.

Q: And the loss of glucosamine ([5]; pH 5.5)?
A: Its loss of glucosamine is 18%.

Q: And the loss of glucosamine ([5]; pH 7.0)?
A: The loss of glucosamine was 68%.

Q: What about the glucosamine degradation ([5]; starting 4 g l-1, pH 6.9, 30 C, about 24 hours) of the same molecule?
A: The glucosamine degradation was “about 25%”.

Q: And the glucosamine degradation ([5]; starting 42 g l-1, pH 6.9, 30 C, less than a day)?
A: Its glucosamine degradation is “More than half”.

Q: What about the glucosamine degradation ([6]; 20 g/l, 1 N hydrochloric acid, 35, 60 or 100 C, 24 hours) of the same molecule?
A: Its glucosamine degradation is “No degradation was observed”.

Q: And the loss of glucosamine ([6]; 90 C, 12% and 16% hydrochloric acid, 90 minutes)?
A: Its loss of glucosamine is “No large loss of glucosamine was observed”.

Q: What about the “glucosamine stability with heating” value ([6]; pH 1.0 or lower, hydrochloric acid) of the same molecule?
A: Its value is “stable”.

Q: What about the “glucosamine stability with heating” value ([6]; pH higher than 1.0) of the same molecule?
A: The value was “a significant amount of glucosamine was lost”.

Q: And the “glucosamine concentration after storage” value ([7]; filtered culture samples, -20 C, several weeks)?
A: Its value is “no decrease in glucosamine concentration”.

Q: And the “glucosamine concentration after storage” value ([7]; filtered samples, room temperature, overnight)?
A: The value was “did not result in any decrease in glucosamine concentration”.

Q: And the “viable count relative to original number” value (E. coli strain 7107-18; 40 g per liter, after 52 hrs)?
A: The value was “about one-fifth”.

Q: What about the “concentration at which toxicity was observed” value (E. coli strain 7107-18; pre-incubated in medium (pH 7.0) for 3.5 hrs prior to inoculation) of the same molecule?
A: The value was 20000 µg/mL.

B1: Bacillus subtilis GlmS, wild type, SEQ ID NO:16 (Bacillus subtilis subsp. subtilis str. 168) (protein)
chain: CGIVGYIGQLDAKEILLKGLEKLEYRGYDSAGIAVANEQGIHVFKEKGRIADLREVVDANVEAKAGIGHTRWATHGEPSYLNAHPHQSALGRFTLVHNGVIENYVQLKQEYLQDVELKSDTDTEVVVQVIEQFVNGGLETEEAFRKTLTLLKGSYAIALFDNDNRETIFVAKNKSPLLVGLGDTFNVVASDAMAMLQVTNEYVELMDKEMVIVTDDQVVIKNLDGDVITRASYIAELDASDIEKGTYPHYMLKETDEQPVVMRKIIQTYQDENGKLSVPGDIAAAVAEADRIYIIGCGTSYHAGLVGKQYIEMWANVPVEVHVASEFSYNMPLLSKKPLFIFLSQSGETADSRAVLVQVKALGHKALTITNVPGSTLSREADYTLLLHAGPEIAVASTKAYTAQIAVLAVLASVAADKNGINIGFDLVKELGIAANAMEALCDQKDEMEMIAREYLTVSRNAFFIGRGLDYFVCVEGALKLKEISYIQAEGFAGGELKHGTIALIEQGTPVFALATQEHVNLSIRGNVKEVAARGANTCIISLKGLDDADDRFVLPEVNPALAPLVSVVPLQLIAYYAALHRGCDVDKPRNLAKSVTVE
Q: Which Km [8] does the source give for B1 here?
A: Its Km is 620 µM.

Reference: patent publication US8124381B2, “Process and materials for production of glucosamine and N-acetylglucosamine” (Arkion Life Sciences, priority 2002, dated 2012)
